Active and inactive are the calls of the source. Rule as the data show it, for most assays here: actives have a measured Kd and inactives only a lower limit.
Tests used:
[1] = biological target: T1, Peroxisomal acyl-coenzyme A oxidase 1 (Homo sapiens, UniProt Q15067)
T1 sequence (Q15067 whole entry): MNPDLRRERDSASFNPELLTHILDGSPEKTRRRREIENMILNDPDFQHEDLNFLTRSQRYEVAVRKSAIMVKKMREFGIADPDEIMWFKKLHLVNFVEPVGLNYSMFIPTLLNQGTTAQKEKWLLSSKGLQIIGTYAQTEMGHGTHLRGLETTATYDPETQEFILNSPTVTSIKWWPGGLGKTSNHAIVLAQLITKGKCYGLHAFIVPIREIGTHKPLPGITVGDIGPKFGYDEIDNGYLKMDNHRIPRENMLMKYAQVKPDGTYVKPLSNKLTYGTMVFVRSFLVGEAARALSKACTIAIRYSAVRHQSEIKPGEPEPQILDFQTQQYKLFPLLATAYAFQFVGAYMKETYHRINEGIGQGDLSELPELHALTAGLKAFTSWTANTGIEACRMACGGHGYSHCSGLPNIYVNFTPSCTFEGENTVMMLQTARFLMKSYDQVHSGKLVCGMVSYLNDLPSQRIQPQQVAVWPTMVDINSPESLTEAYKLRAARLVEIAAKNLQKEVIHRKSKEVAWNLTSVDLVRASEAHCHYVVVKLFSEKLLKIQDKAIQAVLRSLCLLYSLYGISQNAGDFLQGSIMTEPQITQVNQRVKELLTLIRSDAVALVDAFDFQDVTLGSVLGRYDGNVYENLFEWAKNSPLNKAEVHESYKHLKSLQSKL

[2] = biological target: Aurora kinase B (Homo sapiens, UniProt Q96GD4)
[3] = biological target: Cyclin-dependent kinase 6 (Homo sapiens, UniProt Q00534)
[4] = biological target: Dual specificity protein kinase CLK1 (Homo sapiens, UniProt P49759)
[5] = biological target: T2, Receptor-type tyrosine-protein kinase FLT3 (Homo sapiens, UniProt P36888)
T2 sequence (P36888 whole entry): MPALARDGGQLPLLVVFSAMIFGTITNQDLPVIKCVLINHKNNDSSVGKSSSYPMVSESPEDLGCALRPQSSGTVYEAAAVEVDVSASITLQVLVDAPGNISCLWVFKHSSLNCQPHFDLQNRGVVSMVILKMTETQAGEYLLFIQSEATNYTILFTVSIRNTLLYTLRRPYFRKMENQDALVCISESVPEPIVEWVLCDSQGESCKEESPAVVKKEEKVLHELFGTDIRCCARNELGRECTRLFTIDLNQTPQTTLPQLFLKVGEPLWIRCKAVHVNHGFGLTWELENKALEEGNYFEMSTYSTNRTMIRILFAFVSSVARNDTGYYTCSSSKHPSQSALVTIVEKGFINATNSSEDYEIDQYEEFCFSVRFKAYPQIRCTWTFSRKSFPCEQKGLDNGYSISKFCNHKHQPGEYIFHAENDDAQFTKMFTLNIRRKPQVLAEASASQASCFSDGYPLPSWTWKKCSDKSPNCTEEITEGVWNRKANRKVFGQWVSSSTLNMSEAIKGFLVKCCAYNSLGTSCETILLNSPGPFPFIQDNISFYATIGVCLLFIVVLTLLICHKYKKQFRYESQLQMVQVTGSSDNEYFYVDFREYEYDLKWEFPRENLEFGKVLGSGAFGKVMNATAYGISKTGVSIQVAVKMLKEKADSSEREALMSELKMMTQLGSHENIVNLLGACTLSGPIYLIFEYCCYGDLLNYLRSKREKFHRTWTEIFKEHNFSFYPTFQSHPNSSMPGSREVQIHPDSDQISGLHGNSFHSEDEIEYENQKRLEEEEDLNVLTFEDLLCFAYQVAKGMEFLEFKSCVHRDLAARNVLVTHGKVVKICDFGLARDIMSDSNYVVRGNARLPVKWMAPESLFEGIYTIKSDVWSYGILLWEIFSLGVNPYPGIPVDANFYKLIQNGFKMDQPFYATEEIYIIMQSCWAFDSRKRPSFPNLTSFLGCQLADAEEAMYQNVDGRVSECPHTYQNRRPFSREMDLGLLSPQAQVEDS

[6] = biological target: T3, Heme oxygenase 2 (Homo sapiens, UniProt P30519)
T3 sequence (P30519 whole entry): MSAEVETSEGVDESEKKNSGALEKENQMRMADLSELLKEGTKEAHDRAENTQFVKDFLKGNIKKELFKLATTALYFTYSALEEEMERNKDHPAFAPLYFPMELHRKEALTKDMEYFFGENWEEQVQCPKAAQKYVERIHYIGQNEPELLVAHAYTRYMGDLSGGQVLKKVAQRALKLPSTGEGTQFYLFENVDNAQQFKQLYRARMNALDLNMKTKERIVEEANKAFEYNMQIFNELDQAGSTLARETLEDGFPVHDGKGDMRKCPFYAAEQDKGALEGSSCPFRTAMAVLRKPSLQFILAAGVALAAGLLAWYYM

[7] = biological target: Dual specificity mitogen-activated protein kinase kinase 2 (Homo sapiens, UniProt P36507)
[8] = biological target: Mitogen-activated protein kinase 11 (Homo sapiens, UniProt Q15759)
[9] = biological target: cAMP-dependent protein kinase catalytic subunit alpha (Homo sapiens, UniProt P17612)
[10] = biological target: Protein kinase C delta type (Homo sapiens, UniProt Q05655)
[11] = biological target: T4, STE20-related kinase adapter protein alpha (Homo sapiens, UniProt Q7RTN6)
T4 sequence (Q7RTN6 whole entry): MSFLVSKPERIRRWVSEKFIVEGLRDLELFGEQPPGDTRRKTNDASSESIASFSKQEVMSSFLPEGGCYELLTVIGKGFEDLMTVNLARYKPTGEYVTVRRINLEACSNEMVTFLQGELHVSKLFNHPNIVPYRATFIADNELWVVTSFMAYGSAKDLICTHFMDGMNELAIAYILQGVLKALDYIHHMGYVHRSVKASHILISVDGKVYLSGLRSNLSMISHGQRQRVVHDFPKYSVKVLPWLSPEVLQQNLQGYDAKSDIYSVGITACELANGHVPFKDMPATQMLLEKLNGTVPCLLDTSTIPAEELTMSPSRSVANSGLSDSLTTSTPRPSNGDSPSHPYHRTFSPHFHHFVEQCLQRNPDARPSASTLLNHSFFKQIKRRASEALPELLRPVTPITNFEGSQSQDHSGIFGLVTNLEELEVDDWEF

[12] = biological target: Elongation factor Tu, mitochondrial (Homo sapiens, UniProt P49411)
Also: in the data inactive means no Kd found up to 30 µM.

Chain of Dual specificity mitogen-activated protein kinase kinase 2 (P36507 whole entry): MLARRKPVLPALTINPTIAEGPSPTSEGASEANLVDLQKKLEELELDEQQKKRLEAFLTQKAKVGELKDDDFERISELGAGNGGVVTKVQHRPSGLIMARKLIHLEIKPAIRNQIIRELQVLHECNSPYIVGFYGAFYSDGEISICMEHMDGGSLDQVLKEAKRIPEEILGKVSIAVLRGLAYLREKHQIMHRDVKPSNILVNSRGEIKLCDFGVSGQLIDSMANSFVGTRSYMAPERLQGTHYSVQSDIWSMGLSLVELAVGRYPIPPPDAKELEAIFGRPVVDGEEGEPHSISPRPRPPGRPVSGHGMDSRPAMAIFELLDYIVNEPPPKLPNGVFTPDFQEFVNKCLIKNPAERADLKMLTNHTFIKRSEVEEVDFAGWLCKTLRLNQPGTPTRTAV
Chain of Protein kinase C delta type (Q05655 whole entry): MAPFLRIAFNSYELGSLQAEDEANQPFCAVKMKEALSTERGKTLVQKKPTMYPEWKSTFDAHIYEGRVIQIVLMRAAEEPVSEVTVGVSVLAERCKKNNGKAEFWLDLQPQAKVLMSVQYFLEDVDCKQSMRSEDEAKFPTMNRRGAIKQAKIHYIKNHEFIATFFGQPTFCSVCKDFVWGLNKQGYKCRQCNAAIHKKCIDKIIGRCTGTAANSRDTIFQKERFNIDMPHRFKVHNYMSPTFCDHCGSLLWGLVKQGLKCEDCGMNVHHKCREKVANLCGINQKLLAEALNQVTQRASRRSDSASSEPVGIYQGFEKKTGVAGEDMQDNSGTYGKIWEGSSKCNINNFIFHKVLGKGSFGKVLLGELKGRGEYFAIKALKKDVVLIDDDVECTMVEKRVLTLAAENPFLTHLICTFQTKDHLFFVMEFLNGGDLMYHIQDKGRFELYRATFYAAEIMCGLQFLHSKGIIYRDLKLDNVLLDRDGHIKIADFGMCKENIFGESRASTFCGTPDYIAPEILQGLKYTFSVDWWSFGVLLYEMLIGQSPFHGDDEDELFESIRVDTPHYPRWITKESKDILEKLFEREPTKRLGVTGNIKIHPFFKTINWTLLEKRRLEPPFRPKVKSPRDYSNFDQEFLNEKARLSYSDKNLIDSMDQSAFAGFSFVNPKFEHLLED
Chain of Mitogen-activated protein kinase 11 (Q15759 whole entry): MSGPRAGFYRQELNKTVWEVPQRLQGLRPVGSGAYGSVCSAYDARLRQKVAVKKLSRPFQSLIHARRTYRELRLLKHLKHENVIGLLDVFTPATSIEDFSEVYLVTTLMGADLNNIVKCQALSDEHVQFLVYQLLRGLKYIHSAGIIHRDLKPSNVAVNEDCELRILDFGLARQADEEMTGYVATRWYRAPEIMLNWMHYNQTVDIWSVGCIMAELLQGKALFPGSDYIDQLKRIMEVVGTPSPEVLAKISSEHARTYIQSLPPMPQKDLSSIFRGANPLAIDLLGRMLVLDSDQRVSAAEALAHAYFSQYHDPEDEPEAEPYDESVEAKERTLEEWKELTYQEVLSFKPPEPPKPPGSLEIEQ
Chain of Dual specificity protein kinase CLK1 (P49759 whole entry): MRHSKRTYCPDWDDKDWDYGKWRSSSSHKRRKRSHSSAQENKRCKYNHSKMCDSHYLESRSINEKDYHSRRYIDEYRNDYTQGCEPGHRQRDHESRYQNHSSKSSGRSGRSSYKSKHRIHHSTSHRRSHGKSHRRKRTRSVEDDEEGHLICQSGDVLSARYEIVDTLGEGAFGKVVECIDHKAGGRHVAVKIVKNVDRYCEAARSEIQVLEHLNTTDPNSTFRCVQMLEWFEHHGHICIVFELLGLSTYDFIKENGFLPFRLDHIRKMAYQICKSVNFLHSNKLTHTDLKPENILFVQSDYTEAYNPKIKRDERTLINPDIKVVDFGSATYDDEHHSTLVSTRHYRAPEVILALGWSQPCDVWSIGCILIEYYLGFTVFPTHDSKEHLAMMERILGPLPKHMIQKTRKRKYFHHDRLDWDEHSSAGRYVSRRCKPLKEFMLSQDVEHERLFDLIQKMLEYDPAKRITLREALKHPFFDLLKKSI
Chain of Aurora kinase B (Q96GD4 whole entry): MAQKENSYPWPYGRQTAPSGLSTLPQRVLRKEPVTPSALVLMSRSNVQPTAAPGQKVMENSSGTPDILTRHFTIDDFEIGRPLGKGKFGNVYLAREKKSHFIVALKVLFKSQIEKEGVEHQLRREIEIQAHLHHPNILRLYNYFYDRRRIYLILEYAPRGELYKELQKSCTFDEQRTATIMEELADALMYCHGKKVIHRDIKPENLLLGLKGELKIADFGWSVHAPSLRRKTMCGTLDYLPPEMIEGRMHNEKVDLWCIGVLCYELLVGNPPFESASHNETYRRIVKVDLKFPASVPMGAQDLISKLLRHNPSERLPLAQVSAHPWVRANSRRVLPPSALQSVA
Chain of Cyclin-dependent kinase 6 (Q00534 whole entry): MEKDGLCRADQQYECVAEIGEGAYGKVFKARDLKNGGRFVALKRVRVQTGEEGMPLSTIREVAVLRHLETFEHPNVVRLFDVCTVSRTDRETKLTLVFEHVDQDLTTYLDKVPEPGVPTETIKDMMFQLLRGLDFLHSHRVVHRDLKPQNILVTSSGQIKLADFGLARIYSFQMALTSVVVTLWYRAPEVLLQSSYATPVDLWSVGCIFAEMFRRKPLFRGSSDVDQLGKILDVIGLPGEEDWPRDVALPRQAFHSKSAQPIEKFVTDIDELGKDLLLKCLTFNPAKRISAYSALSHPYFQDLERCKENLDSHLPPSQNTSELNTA

| SMILES | Kd [1] | Kd [2] | Kd [3] | Kd [4] | Kd [5] | Kd [6] | Kd [7] | Kd [8] | Kd [9] | Kd [10] | Kd [11] | Kd [12] |
| --- | --- | --- | --- | --- | --- | --- | --- | --- | --- | --- | --- | --- |
| COC(=O)N[C@@H](C)CNc1nccc(-c2cn(C(C)C)nc2-c2cc(Cl)cc(NS(C)(=O)=O)c2F)n1 [ENCORAFENIB] | > 30 µM (inactive) | > 30 µM (inactive) | > 30 µM (inactive) | > 30 µM (inactive) | > 30 µM (inactive) | > 30 µM (inactive) | > 30 µM (inactive) | > 30 µM (inactive) | > 30 µM (inactive) | > 30 µM (inactive) | > 30 µM (inactive) | > 30 µM (inactive) |
| CO[C@H]1C[C@@H]2CC[C@@H](C)[C@@](O)(O2)C(=O)C(=O)N2CCCC[C@H]2C(=O)O[C@H]([C@H](C)C[C@@H]2CC[C@@H](OCCO)[C@H](OC)C2)CC(=O)[C@H](C)/C=C(\C)[C@@H](O)[C@@H](OC)C(=O)[C@H](C)C[C@H](C)/C=C/C=C/C=C/1C [EVEROLIMUS] | > 30 µM (inactive) | > 30 µM (inactive) | > 30 µM (inactive) | > 30 µM (inactive) | > 30 µM (inactive) | > 30 µM (inactive) | > 30 µM (inactive) | > 30 µM (inactive) | > 30 µM (inactive) | > 30 µM (inactive) | > 30 µM (inactive) | > 30 µM (inactive) |
| CC[C@H](Nc1ncnc2[nH]cnc12)c1nc2cccc(F)c2c(=O)n1-c1ccccc1 [IDELALISIB] | > 30 µM (inactive) | > 30 µM (inactive) | > 30 µM (inactive) | > 30 µM (inactive) | > 30 µM (inactive) | > 30 µM (inactive) | > 30 µM (inactive) | > 30 µM (inactive) | > 30 µM (inactive) | > 30 µM (inactive) | > 30 µM (inactive) | > 30 µM (inactive) |
| COc1cc2nccc(Oc3ccc(NC(=O)NC4CC4)c(Cl)c3)c2cc1C(N)=O [LENVATINIB] | > 30 µM (inactive) | 1.78 µM (active) | > 30 µM (inactive) | > 30 µM (inactive) | > 30 µM (inactive) | > 30 µM (inactive) | > 30 µM (inactive) | > 30 µM (inactive) | > 30 µM (inactive) | > 30 µM (inactive) | > 30 µM (inactive) | > 30 µM (inactive) |
| CNC(=O)CN1CCC(Oc2cc3c(Nc4cccc(Cl)c4F)ncnc3cc2OC)CC1 [SAPITINIB] | > 30 µM (inactive) | > 30 µM (inactive) | > 30 µM (inactive) | > 30 µM (inactive) | > 30 µM (inactive) | > 30 µM (inactive) | > 30 µM (inactive) | > 30 µM (inactive) | > 30 µM (inactive) | > 30 µM (inactive) | > 30 µM (inactive) | > 30 µM (inactive) |
| C[C@@H](c1ccc2nccn2c1)n1nnc2ncc(-c3cnn(C)c3)nc21 [SAVOLITINIB] | > 30 µM (inactive) | > 30 µM (inactive) | > 30 µM (inactive) | > 30 µM (inactive) | > 30 µM (inactive) | > 30 µM (inactive) | > 30 µM (inactive) | > 30 µM (inactive) | > 30 µM (inactive) | > 30 µM (inactive) | > 30 µM (inactive) | > 30 µM (inactive) |
| CN1CCC(COc2cnc(-c3cccc(Cn4nc(-c5cccc(C#N)c5)ccc4=O)c3)nc2)CC1 [TEPOTINIB] | > 30 µM (inactive) | > 30 µM (inactive) | > 30 µM (inactive) | > 30 µM (inactive) | > 30 µM (inactive) | > 30 µM (inactive) | > 30 µM (inactive) | > 30 µM (inactive) | > 30 µM (inactive) | > 30 µM (inactive) | > 30 µM (inactive) | > 30 µM (inactive) |
| O=c1sn(-c2cccc3ccccc23)c(=O)n1Cc1ccccc1 [TIDEGLUSIB] | > 30 µM (inactive) | > 30 µM (inactive) | > 30 µM (inactive) | > 30 µM (inactive) | > 30 µM (inactive) | > 30 µM (inactive) | > 30 µM (inactive) | > 30 µM (inactive) | > 30 µM (inactive) | > 30 µM (inactive) | > 30 µM (inactive) | > 30 µM (inactive) |

Next, values leading:

| Kd [1] | Kd [2] | Kd [3] | Kd [4] | Kd [5] | Kd [6] | Kd [7] | Kd [8] | Kd [9] | Kd [10] | Kd [11] | Kd [12] | SMILES |
| --- | --- | --- | --- | --- | --- | --- | --- | --- | --- | --- | --- | --- |
| > 30 µM (inactive) | > 30 µM (inactive) | > 30 µM (inactive) | 0.025 µM (active) | > 30 µM (inactive) | > 30 µM (inactive) | 5.25 µM (active) | > 30 µM (inactive) | > 30 µM (inactive) | > 30 µM (inactive) | > 30 µM (inactive) | > 30 µM (inactive) | O=C1NC(=O)/C(=C/c2ccc3nccc(-c4ccncc4)c3c2)S1 [GSK-1059615] |
| > 30 µM (inactive) | > 30 µM (inactive) | > 30 µM (inactive) | > 30 µM (inactive) | > 30 µM (inactive) | > 30 µM (inactive) | > 30 µM (inactive) | > 30 µM (inactive) | > 30 µM (inactive) | > 30 µM (inactive) | > 30 µM (inactive) | > 30 µM (inactive) | Cn1cc(-c2ccc3nnc(C(F)(F)c4ccc5ncccc5c4)n3n2)cn1 [JNJ-38877605] |
| > 30 µM (inactive) | > 30 µM (inactive) | > 30 µM (inactive) | > 30 µM (inactive) | > 30 µM (inactive) | > 30 µM (inactive) | > 30 µM (inactive) | > 30 µM (inactive) | > 30 µM (inactive) | > 30 µM (inactive) | > 30 µM (inactive) | > 30 µM (inactive) | Cn1cc(-c2ccc(F)c(C(F)(F)F)c2)nc1C1CCN(c2ncnc3[nH]ncc23)CC1 [LY-2584702] |
| > 30 µM (inactive) | > 30 µM (inactive) | > 30 µM (inactive) | > 30 µM (inactive) | 0.143 µM (active) | > 30 µM (inactive) | > 30 µM (inactive) | > 30 µM (inactive) | > 30 µM (inactive) | > 30 µM (inactive) | > 30 µM (inactive) | > 30 µM (inactive) | CN1CCC(CNc2ccc3ncc(-c4cccc(OC(F)(F)F)c4)n3n2)CC1 [SGI-1776] |

From ChEMBL document CHEMBL3991601, “The target landscape of clinical kinase drugs” (Science, 2017)
